Results reported in patent publication US10420753B2, “Combination therapies for treatment of spinal muscular atrophy” (Indiana University Research and Technology Corporation, priority 2016, dated 2019).

Columns and labels:
[1] = test system: SMN2 reporter (SMN2-luciferase) in HEK293 cells; assay: SMN2-luciferase reporter assay; assay type: cell-based, human; design: % Activation: concentration or dose not given beside the values; conditions: for EC50: Homo sapiens, HEK293; for % Activation: percentage increase over basal expression in DMSO control wells
Procedure: (§1) In this high throughput screening assay, the SMN promoter was combined with exons 1-6 and an exon 7 splicing cassette in a single construct that should respond to compounds that increase SMN transcription, exon 7 inclusion, or that might stabilize the SMN RNA or protein. A stable clonal HEK293 cell line that expresses the SMN2 reporter was isolated. Particularly, cells were incubated at 37° C. with 5% CO2. HEK-293 cells were cultured in D-MEM (Gibco 11995) with 10% fetal bovine serum (FBS; Atlas) and 1× pen-strep (Gibco 15140). Reporter cell lines containing SMN1, SMN2, or SV40 driven firefly luciferase reporters and a control (renilla luciferase reporter) were selected and maintained in D-MEM with 10% FBS and 1× pen-strep with 200 μg/mL hygromycin B (Invitrogen 10687-010). 3813 and 3814 fibroblasts were cultured in D-MEM (Gibco 11995) with 10% fetal bovine serum (FBS; Atlas) and 1× pen-strep (Gibco 15140).
The HEK293 reporter cell lines were then plated at 50,000 cells per well in 96-well plates and incubated overnight. […] The final DMSO concentration was 0.1%. Luciferase activity was assayed with either SteadyGlo (Promega E2510) or DualGlo (Promega E2920) luciferase using the Pherastar FS (BMG Labtech) plate reader. For detailed assay conditions, see Table 4. All data points were transformed from light units to percentage increase over basal expression in the treated control wells (DMSO concentration as appropriate, usually 0.1%) and expressed as percent activation (FIG. 1A). […]

[2] = test system: renilla luciferase; assay: Renilla luciferase control in cycloheximide experiment; assay type: cell-based; conditions: 10 μM compound plus 10 μM cycloheximide
Procedure: as §1
To investigate the mechanism of action of LDN291-88-1, the HEK293 SMN2 reporter cells were exposed to LDN291-88-1 at a concentration of 10 μM plus 10 μM cycloheximide to block new protein synthesis, or the same concentration of cycloheximide plus DMSO for comparison. Cell lysates were prepared at the times indicated up to 24 hours as in FIGS. 3A & 3B. The amount of SMN-luciferase protein was quantified by luciferase assay and plotted versus time. […]

[3] = test system: SMNΔ7 SMA mice; assay: Survival of SMA mice; assay type: in vivo; conditions: 10 mg/kg IP daily
Procedure: Compound 291-88-1 was administered either by intraperitoneal (IP) administration into the SMA mice SMNΔ7 FVB.SMNΔ7; SMN2; Smn (Jackson Laboratories 005025). Daily treatment of SMNΔ7 animals with 10 mg/kg (IP) was continued as long as feasible. The lifespan of treated animals was compared to that of untreated animals and vehicle (VH) treated animals (FIG. 13). VH treated animals included treatment with 40% PEG400+60% (10% HP-β-CD in water). […] Treatment with compound 291-88-1 increased median survival to 18.5 days, p<0.0001.

[4] = test system: SMN protein in patient-derived fibroblasts (3813 cells; SMN1-/-SMN2+/+); assay: SMN protein detection in patient fibroblasts by Western blot; assay type: cell-based, human; conditions: 3813 fibroblasts, 48 hours, dose dependent, relative to DMSO control
Procedure: For detection of SMN protein in patient fibroblasts, 8000 cells per cm^2 were plated 24 hours prior to compound addition. Since SMN is expressed ubiquitously, cells containing even one copy of the human SMN1 gene will mask the effects of compounds on expression from the SMN2 gene. SMN null cells are not viable. The current standard is to use a human cell line derived from a severe SMA patient. The fibroblast strain 3813 is SMN1 null with three copies of SMN2. […] SMN protein levels were analyzed by dose response in quantitative immunoblots with statistical analysis by one-way ANOVA with post-hoc analysis using Dunnett or Bonferroni, as appropriate. […] Quantification of protein was performed with the Fujifilm LAS-4000 Multifunctional Imaging System. The signal intensity was measured for each band on an immunoblot, normalized to the loading control, and the fold increase was determined in relation to the appropriate DMSO-treated control. Treatment of patient-derived fibroblasts (3813 cells; SMN1−/−SMN2+/+) with compound 291-88-1 gave a dose dependent 2-3 fold increase of SMN protein expression as determined by Western blot analysis (FIG. 1B).

[5] = test system: total SMN protein in brain extracts; assay: Brain SMN protein in treated mice, Western blot; assay type: in vivo; conditions: once daily subcutaneous or oral for 5 days from PND2, tissues PND7, dose-dependent
Procedure: Animals were treated once daily (subcutaneous injection or oral) for 5 days, starting on postnatal day 2 (PND) with increasing doses of 291-88-1. On PND7, mice were sacrificed and tissues were harvested. Tissues were harvested from treated animals on PND 7 and compared to tissues from non-transgenic control mice (FVB) and VH (vehicle: PEG:PBS 50:50) treated animals. Brain extracts were assayed for total SMN protein in comparison to the housekeeping genes, actin and GAPDH (FIGS. 14 and 15, respectively). There was a dose-dependent increase in SMN protein levels ranging from 2-3 fold.

Question: O=C(Nc1nc2ncc(C(F)(F)F)cc2s1)c1ccccn1 [Compound 287-51-1] was tested. Which EC50 [1] did it give?
Answer: 1000 nM

Question: And the “% Activation” value [1]?
Answer: 110%

Question: How did the EC50 [1] turn out when O=C(Nc1nc2ncc(C(F)(F)F)cc2s1)c1ccccc1 [Compound 287-98-2] was run?
Answer: 2300 nM

Question: What about the “% Activation” value [1] of the same compound?
Answer: 150%

Question: O=C(Nc1nc2cnc(C(F)(F)F)cc2s1)c1ccccc1 [Compound 291-88-1] was tested. Which “effect on renilla luciferase” value [2] did it give?
Answer: no effect

Question: What about the median survival [3] of the same compound?
Answer: 18.5 days

Question: What about the “increase of SMN protein expression” value [4] of the same compound?
Answer: 2-3 fold

Question: What about the “maximal increase in SMN-luciferase greater than the DMSO control” value ([1]; 48 hours, 3 μM) of the same compound?
Answer: 400%

Question: What about the EC50 [1] of the same compound?
Answer: 169 nM

Question: What about the “% Activation” value [1] of the same compound?
Answer: 216%

Question: What about the “increase in SMN protein levels in brain” value [5] of the same compound?
Answer: 2-3 fold

Question: For O=C(Nc1nc2cnc(Cl)cc2s1)c1ccccc1 [Compound 299-1-1], which EC50 [1] is on record?
Answer: 2020 nM

Question: What about the “% Activation” value [1] of the same compound?
Answer: 154%

Question: How did the EC50 [1] turn out when O=C(Nc1nc2ncc(C(F)(F)F)cc2s1)c1cscn1 [Compound 299-9-1] was run?
Answer: 1220 nM

Question: And the “% Activation” value [1]?
Answer: 154%

Question: With O=C(Nc1nc2ncc(C(F)(F)F)cc2s1)c1cncs1 [Compound 299-10-1] as the compound, how does the EC50 [1] read?
Answer: 3200 nM

Question: What about the “% Activation” value [1] of the same compound?
Answer: 112%

Question: O=C(Nc1nc2cnc(C(F)(F)F)cc2s1)c1ccccn1 [Compound 299-15-1] was tested. Which EC50 [1] did it give?
Answer: 172 nM

Question: And the “% Activation” value [1]?
Answer: 169.5%

Question: With O=C(Nc1nc2cnc(C(F)(F)F)cc2s1)c1cccnc1 [Compound 299-16-1] as the compound, how does the EC50 [1] read?
Answer: 154 nM

Question: And the “% Activation” value [1]?
Answer: 177%

Question: For O=C(Nc1nc2cnc(C(F)(F)F)cc2s1)c1cnco1 [Compound 299-53-1], which EC50 [1] is on record?
Answer: 4400 nM

Question: And the “% Activation” value [1]?
Answer: 200%

Question: With O=C(Nc1nc2cnc(C(F)(F)F)cc2s1)c1cocn1 [Compound 299-54-1] as the compound, how does the EC50 [1] read?
Answer: 1140 nM

Question: What about the “% Activation” value [1] of the same compound?
Answer: 208%

Question: What does the source list for O=C(Nc1nc2cnc(C(F)(F)F)cc2s1)c1ccon1 [Compound 299-55-1]?
Answer: EC50 [1]: 245 nM; % Activation [1]: 245%

Question: Which results are given for O=C(Nc1nc2cnc(C(F)(F)F)cc2s1)c1ccnnc1 [Compound 299-63-1]?
Answer: EC50 [1]: 11300 nM; % Activation [1]: 163%

Question: Which results are given for O=C(Nc1nc2cnc(C(F)(F)F)cc2s1)c1ccncn1 [Compound 299-73-1]?
Answer: EC50 [1]: 2680 nM; % Activation [1]: 162%

Question: O=C(Nc1nc2cnc(C(F)(F)F)cc2s1)c1cncs1 [Compound 299-93-1] was tested. Which EC50 [1] did it give?
Answer: 142 nM

Question: And the “% Activation” value [1]?
Answer: 140%

Question: With O=C(Nc1nc2cnc(C(F)(F)F)cc2o1)c1ccccc1 [Compound 301-62-1] as the compound, how does the EC50 [1] read?
Answer: 1250 nM

Question: What about the “% Activation” value [1] of the same compound?
Answer: 80%

Question: O=C(Nc1nc2cnc(C(F)(F)F)cc2s1)c1cncnc1 [Compound 301-90-1] was tested. Which EC50 [1] did it give?
Answer: 2700 nM

Question: And the “% Activation” value [1]?
Answer: 170%

Question: How did the EC50 [1] turn out when O=C(Nc1nc2cnc(C(F)(F)F)cc2s1)c1ccc(F)cc1 [Compound 311-65] was run?
Answer: 612 nM

Question: And the “% Activation” value [1]?
Answer: 87.5%

Question: Which results are given for O=C(Nc1nc2cnc(C(F)(F)F)cc2s1)c1cscn1 [Compound 311-84]?
Answer: EC50 [1]: 620 nM; % Activation [1]: 270%

Question: How did the EC50 [1] turn out when O=C(Nc1nc2cnc(C(F)(F)F)cc2s1)c1nccs1 [Compound 311-85] was run?
Answer: 163 nM

Question: And the “% Activation” value [1]?
Answer: 218%

Question: What does the source list for COc1cc2sc(NC(=O)c3ccccc3)nc2cn1 [Compound 324-2-1]?
Answer: EC50 [1]: 675 nM; % Activation [1]: 150%

Question: With O=C(Nc1nc2cnc(C(F)(F)F)cc2s1)c1cc[nH]n1 [Compound 324-25-1] as the compound, how does the EC50 [1] read?
Answer: 2040 nM

Question: And the “% Activation” value [1]?
Answer: 178%

Question: O=C(Nc1nc2cnc(C(F)(F)F)cc2s1)c1ccno1 [Compound 324-26-1] was tested. Which EC50 [1] did it give?
Answer: 214 nM

Question: What about the “% Activation” value [1] of the same compound?
Answer: 193%

Question: Cc1cc(C(=O)Nc2nc3cnc(C(F)(F)F)cc3s2)no1 [Compound 324-33-1] was tested. Which EC50 [1] did it give?
Answer: 5400 nM

Question: And the “% Activation” value [1]?
Answer: 110%

Question: What does the source list for O=C(Nc1nc2cnc(C(F)(F)F)cc2s1)c1ccns1 [Compound 324-36-1]?
Answer: EC50 [1]: 64 nM; % Activation [1]: 198%

Question: With O=C(Nc1nc2cnc(C(F)(F)F)cc2s1)c1cnsc1 [Compound 324-44-1] as the compound, how does the EC50 [1] read?
Answer: 380 nM

Question: And the “% Activation” value [1]?
Answer: 220%

Question: What does the source list for O=C(Nc1nc2cnc(C(F)(F)F)cc2s1)c1ccsn1 [Compound 324-48-1]?
Answer: EC50 [1]: 335 nM; % Activation [1]: 210%

Question: What does the source list for O=C(Nc1nc2cnc(C(F)(F)F)cc2s1)c1ncco1 [N-(6-trifluoromethyl)thiazolo[4,5-c]pyridin-2-yl)oxazole-2-carboxamide]?
Answer: EC50 [1]: 1300 nM; % Activation [1]: 74%
